In brackets after ≈: the same amount, converted by molar mass.
Legend:
PHL [1] = target: T1, PHL (Photorhabdus asymbiotica, UniProt C7BLE4); experiment: Hemagglutination inhibition assay with PHL (papain-treated human RBCs O); format: cell-based; settings: for MIC (minimal inhibitory concentration, hemagglutination by PHL): RBC O, two independent measurements; for PotencyL-Fuc / β L-Fuc (affinity improvement factor) / β Azide1 (affinity improvement factor) / PotencyAzide1: hemagglutination; for PotencyL-Fuc: MIC L-fucose / MIC ligand; for β L-Fuc (affinity improvement factor): MICbasic unit/(valency × MICligand), basic unit L-Fuc; for β Azide1 (affinity improvement factor): basic unit azide 1; for PotencyAzide1: relative to azide 1
Protocol: The set of potential ligands 1–10 with different levels of fucosylation was tested, and their inhibition potency on hemagglutination by PHL was assessed (Table 1, Fig. 2). […] To assess the contribution of valency to the affinity increase, an affinity improvement factor β was calculated as the relationship MICbasic unit/(valency × MICligand).
Human red blood cells (RBCs) O were processed according to previously published work[16]. In brief, RBCs O treated with sodium citrate were washed four times by PBS buffer (137 mM NaCl, 2.7 mM KCl, 8 mM Na2HPO4, 1.47 mM KH2PO4, pH 7.4), diluted to 50% by PBS with 0.005% (w/w) sodium azide and treated by 0.1% papain for the duration of 30 minutes.
Hemagglutination inhibition assay was performed for specificity and semi-quantitative affinity of the PHL interaction with the compounds. All carbohydrate inhibitors in 50 mM starting concentration were serially diluted in the PBS buffer and used for a determination of the lowest inhibiting concentration. As a blank, the PBS buffer supplemented with the appropriate amount of DMSO was used in order to exclude potential interference with the interaction. The individual samples were mixed with the lectin in concentration 2 mg/ml in a 5 μl:5 μl ratio. Thereafter, 10 μl of 10% RBCs O in PBS buffer was added, thoroughly mixed and incubated for 10 minutes at room temperature. Following incubation, the mixture was again mixed and the reaction was observed on microscope slides using Levenhuk 2L NG microscope with Levenhuk D2L digital camera (Levenhuk, USA). Imagines were obtained via software ToupView for Windows (Levenhuk). The positive (PHL without inhibitor) and negative control (reaction without PHL) were prepared and processed in the same way using the appropriate volume of PBS buffer instead of the not included components. The lowest concentration of inhibitor able to inhibit agglutination was determined and compared with the standard (L-fucose). Minimal inhibitory concentrations (MIC) of synthesised inhibitors were determined from two independent measurements.

PHL [2] = target: T1, PHL; experiment: SPR competitive inhibition of PHL binding to α-L-fucoside sensor chip; settings: for IC50: 25 °C, three independent measurements; for β L-Fuc (affinity improvement factor): IC50,basic unit/(valency × IC50,ligand), basic unit L-Fuc; for PotencyL-Fuc: IC50 L-fucose / IC50 ligand
Protocol: To analyse the competitive inhibition of PHL binding to a multivalent surface, the surface plasmon resonance (SPR) technique was employed. A sensor chip presenting α-L-fucopyranoside residues was treated with a constant concentration of PHL, while an increasing concentration of the ligands was used to determine IC50 (Table 2, Fig. 3). […] To assess the contribution of valency to the affinity increase, an affinity improvement factor β was calculated as the relationship IC50,basic unit/(valency × IC50,ligand)[30].
Surface plasmon resonance (SPR) experiments were performed on a BIAcore T200 instrument (GE Healthcare, UK) at 25 °C, using buffer A supplemented with 0.05% Tween 20 as a running buffer. α-L-fucoside was immobilized onto CM5 sensor chip (GE Healthcare, UK) covered with a carboxymethylated dextran matrix. The sensor chip surface was activated with N-ethyl-N-(3-dimethylaminopropyl)carbodiimide/N-hydroxysuccinimide solution and then coated with streptavidin using the manufacturer’s standard protocol using HBS buffer (10 mM HEPES, 150 mM NaCl, 0.05% Tween 20, pH 7. 5). Unreacted groups were blocked with 1 M ethanolamine-HCl, pH 8.5. Biotinylated carbohydrate (biotinilated monomeric probes, Lectinity, Russia) was injected onto particular measuring channel and pure biotin on blank channel at a flow rate of 5 μl/min.
SPR inhibition measurements were carried out on measuring channel with L-fucoside at a flow rate of 5 µl/min. PHL was diluted to a concentration of 20 μg/ml by the buffer A supplemented with 0.05% Tween 20, mixed 1:1 (v/v) with various concentrations of inhibitors (500–5 μM) in the same buffer and injected onto the sensor chip. The response of lectin bound to the sugar surface at equilibrium was plotted against the concentration of inhibitor in order to determine IC50 (concentration of inhibitor resulting in 50% inhibition of binding). As IC50 is not a constant and depends on the experimental set-up, a parameter called potency was used for characterization. The potency of a tested inhibitor is the ratio of IC50 of a chosen standard inhibitor (in this case L-fucose) and the inhibitor in question. Pure PHL lectin was used as a control (0% inhibition) and channel with pure biotin served as a blank. IC50 was determined from triplicates.

[3] = test system: P. asymbiotica subsp. australis cells; experiment: Cell aggregation (cross-linking) assay; format: cell-based, Photorhabdus asymbiotica subsp. australis; settings: three independent measurements
Description: Because of the aggregation of PHL by calixarenes and dendrimers during SPR and ITC experiments, we decided to compare tetravalent compounds at a higher level. We performed a series of in vitro aggregation assays to reveal their aggregation properties towards P. asymbiotica subsp. australis (Table 4, Fig. 5). Prior to each assay, we confirmed the absence of aggregates in two negative controls – bacterial cells in PBS buffer and in the presence of azide 1 as a monomer. With all chosen compounds, we observed bacterial aggregates of a variable size that confirmed that they are capable of interacting with a cell surface. This effect may be caused by interaction of the multivalent inhibitors with PHL or other receptors. The concentration of the first appearance of aggregates varied according to the nature of the ligand used. […] An unexpected observation was that calixarene 7 had the lowest aggregation potential. In contrast to other techniques (hemagglutination, SPR and ITC), where calixarenes 6 and 7 provided similar results, during cross-linking experiments calixarene 7 was four times worse than calixarene 6. At the same time, both tetrameric calixarenes 6 and 7 are in a 1,3-alternate conformation with the two-faced presentation of the fucopyranosyl epitopes on opposite regions probably occupying a similar spatial orientation. The only difference is the tert-Bu group on the upper rim in calixarene 6, which might contribute to nonpolar interactions with whole P. asymbiotica cells.
P. asymbiotica subsp. australis was inoculated from stock cells stored at −80 °C into a standard LB media and were grown in 30 °C under an orbital shaking overnight. Bacterial growth was tracked by measuring the optical density of the broth at 600 nm (OD600) using a spectrophotometer (Biochrom Ltd., BioPhotometer WGA CO 8000 Biowave). Cells were harvested when reaching an OD600 = 0.5. The culture was centrifuged at 4,300 g and room temperature for 2 minutes (Minispin, Eppendorf, Germany) and cells were then washed three times with PBS buffer. Cells were diluted in PBS to OD600 of 2.0 and kept in a fridge until performing the aggregation assay.
P. asymbiotica subsp. australis cells and fucosylated compounds in a concentration ranging from 50 mM to 3.125 mM were gently mixed in a 9:1 (v/v) ratio. The reaction mixtures were left at room temperature for 10 minutes. 5 µl of reaction mixture was then transferred onto a microscope slide and observed under a fluorescence microscope (OLYMPUS IX81 Microscope IX81F-3 with IX2-UCB-2 Controller and X-Cite 120PC Q; Olympus and Excelitas Technologies, Japan, resp. USA). As a negative control, bacterial cells with/without azide 1 as a monomer were used. Three independent measurements were performed.

PHL [4] = target: T1, PHL; experiment: Isothermal titration calorimetry of PHL with ligands; format: binding
Description: The binding of PHL to different α-L-fucoside compounds was further characterized by isothermal titration calorimetry (ITC), enabling determination of the complete thermodynamic profile of the molecular interactions (Table 3, Fig. 4). […] Because of this, it was not possible to evaluate the data, despite the obvious interaction. The dendrimers also cross-linked/aggregated the protein as with calixarenes, however the curves provided clear outcomes with an affinity in the low micromolar range. The dissociation constants (KD) of all dendrimers correlate with their valency – the higher number of fucose, the more decreased KD. […] The stoichiometry value n corresponds to the number of terminal fucoses per ligand molecule. The n value decreases from 4 to 1 as the number of fucose units increases from 1 to 12 (Table 3).
PHL protein in buffer A was equilibrated at room temperature at least for 30 min before ITC measurement. All ITC experiments were performed using ITC200 calorimeter (Malvern Panalytical, UK) at 25 °C. Carbohydrate ligands dissolved in buffer A were used at different concentrations. Protein in the calorimeter cell (50 μM) was titrated by consecutive additions (2 μl) of the ligand (1.5–5 mM) in the syringe while stirring at 1000 rpm. Integrated heat effects were analysed by nonlinear regression using a single-site binding model and global fitting in Origin 7 software (Microcal Instruments)[37]. The thermodynamic parameters of synthesised inhibitors were determined from two independent measurements.

T1 sequence (C7BLE4 entry or part of it): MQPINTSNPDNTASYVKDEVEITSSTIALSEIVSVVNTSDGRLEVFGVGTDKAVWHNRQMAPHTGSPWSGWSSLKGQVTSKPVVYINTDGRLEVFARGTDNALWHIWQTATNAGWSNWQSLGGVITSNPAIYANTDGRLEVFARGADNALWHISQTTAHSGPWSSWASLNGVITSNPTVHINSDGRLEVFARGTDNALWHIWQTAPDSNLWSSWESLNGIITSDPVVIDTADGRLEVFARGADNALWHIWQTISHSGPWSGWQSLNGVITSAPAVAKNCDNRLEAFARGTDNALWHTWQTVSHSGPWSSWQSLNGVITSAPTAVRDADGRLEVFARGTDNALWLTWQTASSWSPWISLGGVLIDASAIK

**Q.** For `C[C@@H]1O[C@@H](CCn2cc(COc3c4cc(C(C)(C)C)cc3Cc3cc(C(C)(C)C)cc(c3OCc3cn(CC[C@@H]5O[C@@H](C)[C@@H](O)[C@@H](O)[C@@H]5O)nn3)Cc3cc(C(C)(C)C)cc(c3OCc3cn(CC[C@@H]5O[C@@H](C)[C@@H](O)[C@@H](O)[C@@H]5O)nn3)Cc3cc(C(C)(C)C)cc(c3OCc3cn(CC[C@@H]5O[C@@H](C)[C@@H](O)[C@@H](O)[C@@H]5O)nn3)C4)nn2)[C@@H](O)[C@H](O)[C@@H]1O` [Calixarene 6], which “MIC (minimal inhibitory concentration, hemagglutination by PHL)” value (PHL [1]) is on record?
**A.** 100 µM (≈ 167 µg/mL)

**Q.** And the PotencyL-Fuc (PHL [1])?
**A.** 31.3

**Q.** What about the “β L-Fuc (affinity improvement factor)” value (PHL [1]) of the same compound?
**A.** 7.8

**Q.** What about the “β Azide1 (affinity improvement factor)” value (PHL [1]) of the same compound?
**A.** 0.5

**Q.** And the PotencyAzide1 (PHL [1])?
**A.** 2

**Q.** What about the IC50 (PHL [2]) of the same compound?
**A.** 195 ± 23 nM

**Q.** And the “β L-Fuc (affinity improvement factor)” value (PHL [2])?
**A.** 464

**Q.** And the PotencyL-Fuc (PHL [2])?
**A.** 1,853

**Q.** And the “β Azide1 (affinity improvement factor)” value (PHL [2]; basic unit azide 1)?
**A.** 15

**Q.** What about the “β Azide1 (affinity improvement factor)” value (PHL [2]; basic unit azide 1, listed as calixarene 6) of the same compound?
**A.** approximately 15

**Q.** And the PotencyAzide1 (PHL [2]; relative to azide 1)?
**A.** 59

**Q.** What about the “The lowest concentration able to aggregate P. asymbiotica cells” value [3] of the same compound?
**A.** 1.25 mM

**Q.** Which results are given for `C[C@@H]1O[C@@H](CCn2cc(COCC(COCc3cn(CC[C@@H]4O[C@@H](C)[C@@H](O)[C@@H](O)[C@@H]4O)nn3)(COCc3cn(CC[C@@H]4O[C@@H](C)[C@@H](O)[C@@H](O)[C@@H]4O)nn3)COCC(COCc3cn(CC[C@@H]4O[C@@H](C)[C@@H](O)[C@@H](O)[C@@H]4O)nn3)(COCc3cn(CC[C@@H]4O[C@@H](C)[C@@H](O)[C@@H](O)[C@@H]4O)nn3)COCc3cn(CC[C@@H]4O[C@@H](C)[C@@H](O)[C@@H](O)[C@@H]4O)nn3)nn2)[C@@H](O)[C@H](O)[C@@H]1O` [Dendrimer 9]?
**A.** MIC (minimal inhibitory concentration, hemagglutination by PHL) (PHL [1]): 25 µM (≈ 44.6 µg/mL); PotencyL-Fuc (PHL [1]): 125; PotencyL-Fuc (PHL [1]; listed as dendrimer 9): more than 100; β L-Fuc (affinity improvement factor) (PHL [1]): 20.8; β Azide1 (affinity improvement factor) (PHL [1]): 1.3; PotencyAzide1 (PHL [1]): 8; IC50 (PHL [2]): 37 ± 3 nM; β L-Fuc (affinity improvement factor) (PHL [2]): 1,631; β L-Fuc (affinity improvement factor) (PHL [2]; listed as dendrimer 9): over 1,600; PotencyL-Fuc (PHL [2]): 9,762; PotencyL-Fuc (PHL [2]; listed as dendrimer 9): 9,800; β Azide1 (affinity improvement factor) (PHL [2]; basic unit azide 1): 52; PotencyAzide1 (PHL [2]; relative to azide 1): 311; PotencyAzide1 (PHL [2]; relative to azide 1, listed as dendrimer 9): 310; Kd (PHL [4]; ITC at 25 °C): 12.5 ± 0.6 µM; −TΔS (PHL [4]; ITC at 25 °C): 43.5 ± 1.6 kJ/mol; −ΔG (PHL [4]; ITC at 25 °C): 28.0 ± 1.3 kJ/mol; −ΔH (PHL [4]; ITC at 25 °C): 71.5 ± 0.8 kJ/mol; n (stoichiometry) (PHL [4]; ITC at 25 °C, two independent measurements): 2.0 ± 0.0; Kd (PHL [4]; ITC at 25 °C, listed as hexavalent dendrimer): 13 µM; Potency L-Fuc (PHL [4]; ITC, KD L-fucose / KD ligand): 112; β L-Fuc (affinity improvement factor) (PHL [4]; ITC, KD,basic unit/(valency × KD,ligand), basic unit L-Fuc): 19; β Azide1 (affinity improvement factor) (PHL [4]; ITC, basic unit azide 1): 1; PotencyAzide1 (PHL [4]; ITC, relative to azide 1): 8

Source: article PMC6797808, “Fucosylated inhibitors of recently identified bangle lectin from Photorhabdus asymbiotica” (Scientific Reports, 2019)
